Data taken from article PMC7438732, “The H^+-Translocating Inorganic Pyrophosphatase From Arabidopsis thaliana Is More Sensitive to Sodium Than Its Na^+-Translocating Counterpart From Methanosarcina mazei” (Frontiers in Plant Science, 2020).

Key:
[1] = molecular target: T1, MVP (Methanosarcina mazei, UniProt Q8PYZ8); assay: colorimetric orthophosphate release; fit of MWC-derived Equation […]; format: biochemical; conditions: read-out: KR
T1 construct: gene hppA1; InvGFPMVP: N-terminal signal peptide of yeast Suc2p + yEGFP + MVP; stripped microsomal membranes of S. cerevisiae YPC6; homodimer

[2] = molecular target: T2, AVP1 (Arabidopsis thaliana, UniProt P31414); assay: as above; format: biochemical; conditions: read-out: KR
T2 construct: InvGFPAVP1: N-terminal signal peptide of yeast Suc2p + yEGFP + AVP1; stripped microsomal membranes of S. cerevisiae YPC6; homodimer
T2 sequence (P31414 1-770): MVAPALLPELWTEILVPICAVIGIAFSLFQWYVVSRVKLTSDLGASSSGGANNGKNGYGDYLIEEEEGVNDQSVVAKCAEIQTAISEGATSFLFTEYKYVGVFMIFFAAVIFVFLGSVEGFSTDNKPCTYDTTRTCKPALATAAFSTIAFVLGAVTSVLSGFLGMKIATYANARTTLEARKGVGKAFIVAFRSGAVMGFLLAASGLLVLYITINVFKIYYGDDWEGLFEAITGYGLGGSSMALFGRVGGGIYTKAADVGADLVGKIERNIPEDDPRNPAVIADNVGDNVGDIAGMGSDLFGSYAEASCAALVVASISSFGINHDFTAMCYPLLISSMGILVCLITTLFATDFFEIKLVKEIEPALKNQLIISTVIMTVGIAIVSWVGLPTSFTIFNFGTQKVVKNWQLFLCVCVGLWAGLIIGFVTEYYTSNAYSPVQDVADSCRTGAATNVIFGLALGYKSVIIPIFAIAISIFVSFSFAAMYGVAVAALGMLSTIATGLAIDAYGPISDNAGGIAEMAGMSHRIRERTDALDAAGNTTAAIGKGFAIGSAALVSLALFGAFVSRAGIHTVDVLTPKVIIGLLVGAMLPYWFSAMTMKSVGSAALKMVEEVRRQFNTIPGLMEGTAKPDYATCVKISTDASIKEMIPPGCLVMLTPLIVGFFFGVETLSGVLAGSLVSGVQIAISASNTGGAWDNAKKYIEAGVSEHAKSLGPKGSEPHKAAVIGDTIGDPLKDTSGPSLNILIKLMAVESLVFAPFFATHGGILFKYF

T1 sequence (Q8PYZ8 whole entry): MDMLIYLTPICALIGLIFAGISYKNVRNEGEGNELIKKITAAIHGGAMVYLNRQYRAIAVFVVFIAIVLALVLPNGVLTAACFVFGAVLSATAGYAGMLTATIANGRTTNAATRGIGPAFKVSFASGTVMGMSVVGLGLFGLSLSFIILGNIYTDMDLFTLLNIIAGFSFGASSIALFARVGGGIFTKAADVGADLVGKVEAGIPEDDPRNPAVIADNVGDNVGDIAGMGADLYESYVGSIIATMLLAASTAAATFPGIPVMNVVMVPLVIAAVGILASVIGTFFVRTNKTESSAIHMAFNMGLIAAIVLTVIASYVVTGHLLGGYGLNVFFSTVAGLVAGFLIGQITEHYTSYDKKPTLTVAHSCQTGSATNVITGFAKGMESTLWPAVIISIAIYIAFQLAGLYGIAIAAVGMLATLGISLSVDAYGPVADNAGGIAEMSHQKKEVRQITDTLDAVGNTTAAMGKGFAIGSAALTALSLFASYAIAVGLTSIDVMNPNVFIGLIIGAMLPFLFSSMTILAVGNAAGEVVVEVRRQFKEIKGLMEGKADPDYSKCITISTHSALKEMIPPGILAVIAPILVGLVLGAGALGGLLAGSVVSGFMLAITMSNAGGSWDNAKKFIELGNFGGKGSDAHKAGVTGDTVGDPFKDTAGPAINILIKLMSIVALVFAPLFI

Kd [1]: 62 ± 8 µM
Kd [2]: 84 ± 9 µM
Compound: O=P(O)(O)OP(=O)(O)O [Mg2PPi]
